“Also recorded” adds a separate entry of the source.
Assays:
[1] = Area under the light absorbance spectrum curve of a 0.001 w/v % aqueous solution (UV meter, trapezoidal formula); format: physicochemical; conditions: 0.001 w/v % aqueous solution of the added compound
Description: FIG. 1 is a graph showing the relationship between the absorbance wavelength and the absorbance of various compounds. The measurement method is as follows. A 0.001 w/v % aqueous solution of a drug and various stabilizers was prepared, and the absorbances at each absorbance wavelength in a range of 200 nm to 600 nm were measured. […] Condition: scan speed: medium speed, sampling pitch: 1.0, length of light path: 10 mm, width of a slit: 2.0 nm.
FIG. 2 is a graph showing a method for calculating the area under the spectrum curve of various compounds. The area under the spectrum curve was calculated by a trapezoidal formula. That is, for the spectrum of each of the compounds, the trapezoidal area was calculated at every sampling pitch (1.0 nm), and a desired area was measured from the total value of the trapezoidal areas in the wavelength range.

[2] = Stability under irradiation with a white fluorescent lamp of 1000 Lux, assay value by liquid chromatography; conditions: compound added to ramosetron hydrochloride preparation
Description: The quantitative determination was carried out by liquid chromatography.

[3] = Stability under sealing of an HDPE plastic bottle at 40° C. and 75% RH, assay value by liquid chromatography; format: physicochemical; conditions: compound added to ramosetron or its salt

Molecule | area under the spectrum curve at the wavelength range of 220 nm to 240 nm [1] | area under the spectrum curve at the wavelength range of 280 nm to 300 nm [1] | stabilizing effect of the added compound on ramosetron hydrochloride against light (in words) [2] | stabilizing effect of the added compound on ramosetron under a high-temperature and high-humidity condition (in words) [3]
OC[C@@H](O)[C@@H](O)[C@H](O)[C@H](O)CO [mannitol, reference compound] | 0.1 | 0.1 | did not exhibit a remarkable stabilizing effect against light | –
methyl hesperidin | 5.4 | 3.7 | a remarkable stabilizing effect of ramosetron hydrochloride against the irradiation with light is found; also recorded: exhibited a remarkable stabilizing effect against light | a remarkable stabilizing effect under a high-temperature and high-humidity condition
αG hesperidin | 6.0 | 5.0 | a remarkable stabilizing effect of ramosetron hydrochloride against the irradiation with light is found; also recorded: exhibited a remarkable stabilizing effect against light | a remarkable stabilizing effect under a high-temperature and high-humidity condition
Cc1cc(S(=O)(=O)[O-])c2c(C)ccc(C(C)C)cc1-2.[Na+] [sodium azulene sulfonate] | 8.4 | 19.9 | a remarkable stabilizing effect of ramosetron hydrochloride against the irradiation with light is found; also recorded: exhibited a remarkable stabilizing effect against light | –

Continued, in another order:

area under the spectrum curve at the wavelength range of 220 nm to 240 nm [1] | area under the spectrum curve at the wavelength range of 280 nm to 300 nm [1] | Molecule | stabilizing effect of the added compound on ramosetron hydrochloride against light (in words) [2] | stabilizing effect of the added compound on ramosetron under a high-temperature and high-humidity condition (in words) [3]
4.2 | 1.8 | O=C([O-])c1ccccc1-c1c2cc(I)c(=O)c(I)c-2oc2c(I)c([O-])c(I)cc12.[Na+].[Na+] [Food Red No. 3, reference compound] | – | –
10.0 | 3.1 | O=S(=O)([O-])c1cc(S(=O)(=O)[O-])c2c(N=Nc3ccc(S(=O)(=O)[O-])c4ccccc34)c(O)ccc2c1.[Na+].[Na+].[Na+] [Food Red No. 102] | – | –

— patent US20100062063A1, “LIGHT-STABLE SOLID PHARMACEUTICAL COMPOSITION OF RAMOSETRON” (ASTELLAS PHARMA INC., priority 2006, published 2010)
